In patent US20170190671A1, “BIS(ARYL)CATECHOL DERIVATIVES AS HERBICIDES” (E I DU PONT DE NEMOURS AND COMPANY, priority 2014, published 2017):

Assays:
Assay type in all cases: in vivo
[1] = system: pigweed (Amaranthus retroflexus); assay: Test A preemergence; details: 1000 g ai/ha, 0 to 100 scale; for pest or weed control at 1000 g/ha: Amaranthus retroflexus, pre-emergence, 240 h, read-out: Plant response rating, Pigweed
How it was run: (§1)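 Greenhouse pot test, loam/sand soil. Formulation: non-phytotoxic solvent mix plus surfactant. Pre: directed spray onto soil after sowing. Post: plants at 1–2 leaf, 2–10 cm. Rated visually vs untreated controls at ~10 d, 0 (no effect) to 100 (complete control).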

[2] = system: ragweed (common ragweed, Ambrosia elatior); assay: Test A preemergence; details: 1000 g ai/ha, 0 to 100 scale; for pest or weed control at 1000 g/ha: Ambrosia artemisiifolia, pre-emergence, 240 h, read-out: Plant response rating, Ragweed
How it was run: as §1

[3] = system: barnyardgrass (Echinochloa crus-galli); assay: Test A preemergence; details: 1000 g ai/ha, 0 to 100 scale; for pest or weed control at 1000 g/ha: Echinochloa crus-galli, pre-emergence, 240 h, read-out: Plant response rating, Barnyardgrass
How it was run: as §1

[4] = system: Italian ryegrass (Lolium multiflorum); assay: Test A preemergence; details: 1000 g ai/ha, 0 to 100 scale; for pest or weed control at 1000 g/ha: Lolium multiflorum, pre-emergence, 240 h, read-out: Plant response rating, Ryegrass, Italian
How it was run: as §1

[5] = system: giant foxtail (Setaria faberii); assay: Test A preemergence; details: 1000 g ai/ha, 0 to 100 scale; for pest or weed control at 1000 g/ha: Setaria faberi, pre-emergence, 240 h, read-out: Plant response rating, Foxtail, Giant
How it was run: as §1

kochia (Kochia scoparia) [6] = assay: Test A preemergence; details: 1000 g ai/ha, 0 to 100 scale; for pest or weed control at 1000 g/ha: Bassia scoparia, pre-emergence, 240 h, read-out: Plant response rating, Kochia
How it was run: as §1

[7] = system: pigweed (Amaranthus retroflexus); assay: Test A postemergence; details: 1000 g ai/ha, 0 to 100 scale; for pest or weed control at 1000 g/ha: Amaranthus retroflexus, post-emergence, 240 h, read-out: Plant response rating, Pigweed
How it was run: as §1

[8] = system: ragweed (common ragweed, Ambrosia elatior); assay: Test A postemergence; details: 1000 g ai/ha, 0 to 100 scale; for pest or weed control at 1000 g/ha: Ambrosia artemisiifolia, post-emergence, 240 h, read-out: Plant response rating, Ragweed
How it was run: as §1

[9] = system: barnyardgrass (Echinochloa crus-galli); assay: Test A postemergence; details: 1000 g ai/ha, 0 to 100 scale, 0 no effect, 100 complete control; for pest or weed control at 1000 g/ha: Echinochloa crus-galli, post-emergence, 240 h, read-out: Plant response rating, Barnyardgrass
How it was run: as §1

corn (Zea mays) = assay: Test A postemergence; details: 1000 g ai/ha, 0 to 100 scale; for Corn plant response rating (crop injury, 0 = no effect, 100 = complete kill) at 1000 g/ha: Zea mays, post-emergence, 240 h
How it was run: as §1

[10] = system: Italian ryegrass (Lolium multiflorum); assay: Test A postemergence; details: 1000 g ai/ha, 0 to 100 scale; for pest or weed control at 1000 g/ha: Lolium multiflorum, post-emergence, 240 h, read-out: Plant response rating, Ryegrass, Italian
How it was run: as §1

[11] = system: giant foxtail (Setaria faberii); assay: Test A postemergence; details: 1000 g ai/ha, 0 to 100 scale; for pest or weed control at 1000 g/ha: Setaria faberi, post-emergence, 240 h, read-out: Plant response rating, Foxtail, Giant
How it was run: as §1

[12] = system: wheat (Triticum aestivum); assay: Test A postemergence; details: 1000 g ai/ha, 0 to 100 scale; for plant injury at 1000 g/ha: Triticum aestivum, post-emergence, 240 h, read-out: Plant response rating, Wheat
How it was run: as §1

kochia (Kochia scoparia) [13] = assay: Test A postemergence; details: 1000 g ai/ha, 0 to 100 scale; for pest or weed control at 1000 g/ha: Bassia scoparia, post-emergence, 240 h, read-out: Plant response rating, Kochia
How it was run: as §1

[14] = system: blackgrass (Alopecurus myosuroides); assay: Test A postemergence; details: 1000 g ai/ha, 0 to 100 scale; for pest or weed control at 1000 g/ha: Alopecurus myosuroides, post-emergence, 240 h, read-out: Plant response rating, Blackgrass
How it was run: as §1

[15] = system: galium (catchweed bedstraw, Galium aparine); assay: Test A postemergence; details: 1000 g ai/ha, 0 to 100 scale; for pest or weed control at 1000 g/ha: Galium, post-emergence, 240 h, read-out: Plant response rating, Galium
How it was run: as §1

[16] = system: barnyardgrass (Echinochloa crus-galli); assay: Test B flooded paddy; details: 250 g ai/ha, Flood, 13 to 15 days, scale 0 (no effect) to 100 (complete control); for pest or weed control at 250 g/ha: Echinochloa crus-galli, 336 h, read-out: Plant response rating, Barnyardgrass
How it was run: (§2)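 Compound was added to standing water 3 cm above soil, flood maintained, and plants held in a greenhouse before visual scoring against controls at 13 to 15 days.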

[17] = system: sedge, umbrella (small-flower umbrella sedge, Cyperus difformis); assay: Test B flooded paddy; details: 250 g ai/ha, Flood, 13 to 15 days, scale 0 (no effect) to 100 (complete control); for pest or weed control at 250 g/ha: Cyperus difformis, 336 h, read-out: Plant response rating, Sedge, Umbrella
How it was run: as §2

rice (Oryza sativa) = assay: Test B flooded paddy; details: 250 g ai/ha, Flood, 13 to 15 days, scale 0 (no effect) to 100 (complete control); for plant injury at 250 g/ha: Oryza sativa, 336 h, read-out: Plant response rating, Rice
How it was run: as §2

[18] = system: ducksalad (Heteranthera limosa); assay: Test B flooded paddy; details: 250 g ai/ha, Flood, 13 to 15 days, scale 0 (no effect) to 100 (complete control); for pest or weed control at 250 g/ha: Heteranthera limosa, 336 h, read-out: Plant response rating, Ducksalad
How it was run: as §2

[19] = system: waterhemp (common waterhemp, Amaranthus rudis); assay: Test C preemergence; details: scale 0 to 100; for pest or weed control at 31 g/ha / pest or weed control at 62 g/ha / pest or weed control at 125 g/ha / pest or weed control at 250 g/ha: Amaranthus tuberculatus, pre-emergence, read-out: Plant response rating, Waterhemp
How it was run: (§3)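 Visual ratings (0 none to 100 complete control) were made 13 to 15 days after treatment, relative to controls. Test chemicals, formulated in a non-phytotoxic solvent mixture with surfactant, were applied in the greenhouse preemergence to seeded loam-sand soil or postemergence to plants 2 to 18 cm tall.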

[20] = system: Italian ryegrass (Lolium multiflorum); assay: Test C preemergence; details: scale 0 to 100; for pest or weed control at 31 g/ha / pest or weed control at 62 g/ha / pest or weed control at 125 g/ha / pest or weed control at 250 g/ha: Lolium multiflorum, pre-emergence, 336 h, read-out: Plant response rating, Ryegrass, Italian
How it was run: as §3

Fc1cnc(Oc2c(F)cccc2Oc2ncc(Cl)cn2)nc1 [Compound 23]
pest or weed control at 1000 g/ha [1]: 100% | pest or weed control at 1000 g/ha [2]: 100% | pest or weed control at 1000 g/ha [3]: 100% | pest or weed control at 1000 g/ha [4]: 80% | pest or weed control at 1000 g/ha [5]: 100% | pest or weed control at 1000 g/ha (kochia (Kochia scoparia) [6]): 100% | pest or weed control at 1000 g/ha [7]: 100% | pest or weed control at 1000 g/ha [8]: 90% | pest or weed control at 1000 g/ha [9]: 90% | Corn plant response rating (crop injury, 0 = no effect, 100 = complete kill) at 1000 g/ha (corn (Zea mays)): 50% | pest or weed control at 1000 g/ha [10]: 90% | pest or weed control at 1000 g/ha [11]: 90% | plant injury at 1000 g/ha [12]: 60% | pest or weed control at 1000 g/ha (kochia (Kochia scoparia) [13]): 90% | pest or weed control at 1000 g/ha [14]: 80% | pest or weed control at 1000 g/ha [15]: 90% | pest or weed control at 250 g/ha [16]: 60% | pest or weed control at 250 g/ha [17]: 80% | plant injury at 250 g/ha (rice (Oryza sativa)): 60% | pest or weed control at 250 g/ha [18]: 90% | pest or weed control at 31 g/ha ([19]; 31 g ai/ha, preemergence): 100% | pest or weed control at 62 g/ha ([19]; 62 g ai/ha, preemergence): 100% | pest or weed control at 125 g/ha ([19]; 125 g ai/ha, preemergence): 100% | pest or weed control at 250 g/ha ([19]; 250 g ai/ha, preemergence): 100% | pest or weed control at 31 g/ha ([20]; 31 g ai/ha, preemergence): 5% | pest or weed control at 62 g/ha ([20]; 62 g ai/ha, preemergence): 75% | pest or weed control at 125 g/ha ([20]; 125 g ai/ha, preemergence): 85% | pest or weed control at 250 g/ha ([20]; 250 g ai/ha, preemergence): 90%

FC(F)(F)c1cnc(Oc2c(Br)cccc2Oc2ncc(Cl)cn2)nc1 [Compound 24]
Plant response rating, Pigweed [1]: 100 | Plant response rating, Ragweed [2]: 70 | Plant response rating, Barnyardgrass [3]: 100 | Plant response rating, Ryegrass, Italian [4]: 80 | Plant response rating, Foxtail, Giant [5]: 100 | Plant response rating, Kochia (kochia (Kochia scoparia) [6]): 90 | Plant response rating, Pigweed [7]: 100 | Plant response rating, Ragweed [8]: 60 | Plant response rating, Barnyardgrass [9]: 90 | Plant response rating, Corn (corn (Zea mays)): 50 | Plant response rating, Ryegrass, Italian [10]: 80 | Plant response rating, Foxtail, Giant [11]: 90 | Plant response rating, Wheat [12]: 50 | Plant response rating, Kochia (kochia (Kochia scoparia) [13]): 90 | Plant response rating, Blackgrass [14]: 70 | Plant response rating, Galium [15]: 90 | Plant response rating, Barnyardgrass [16]: 50 | Plant response rating, Sedge, Umbrella [17]: 100 | Plant response rating, Rice (rice (Oryza sativa)): 90 | Plant response rating, Ducksalad [18]: 100 | Plant response rating, Waterhemp ([19]; 31 g ai/ha, Preemergence): 100 | Plant response rating, Waterhemp ([19]; 62 g ai/ha, Preemergence): 100 | Plant response rating, Waterhemp ([19]; 125 g ai/ha, Preemergence): 100 | Plant response rating, Waterhemp ([19]; 250 g ai/ha, preemergence): 100 | Plant response rating, Ryegrass, Italian ([20]; 31 g ai/ha, Preemergence): 55 | Plant response rating, Ryegrass, Italian ([20]; 62 g ai/ha, Preemergence): 90 | Plant response rating, Ryegrass, Italian ([20]; 125 g ai/ha, Preemergence): 95 | Plant response rating, Ryegrass, Italian ([20]; 250 g ai/ha, preemergence): 95

Fc1cccc(Oc2ncc(Cl)cn2)c1Oc1ncc(Br)cn1 [Compound 27, 5-bromo-2-[2-fluoro-6-[(5-chloro-2-pyrimidinyl)oxy]phenoxy]pyrimidine]
pest or weed control at 1000 g/ha [1]: 100% | pest or weed control at 1000 g/ha [2]: 90% | pest or weed control at 1000 g/ha [3]: 100% | pest or weed control at 1000 g/ha [4]: 70% | pest or weed control at 1000 g/ha [5]: 100% | pest or weed control at 1000 g/ha (kochia (Kochia scoparia) [6]): 100% | pest or weed control at 1000 g/ha [7]: 100% | pest or weed control at 1000 g/ha [8]: 80% | pest or weed control at 1000 g/ha [9]: 90% | Corn plant response rating (crop injury, 0 = no effect, 100 = complete kill) at 1000 g/ha (corn (Zea mays)): 40% | pest or weed control at 1000 g/ha [10]: 90% | pest or weed control at 1000 g/ha [11]: 90% | plant injury at 1000 g/ha [12]: 50% | pest or weed control at 1000 g/ha (kochia (Kochia scoparia) [13]): 90% | pest or weed control at 1000 g/ha [14]: 80% | pest or weed control at 1000 g/ha [15]: 90% | pest or weed control at 250 g/ha [16]: 50% | pest or weed control at 250 g/ha [17]: 85% | plant injury at 250 g/ha (rice (Oryza sativa)): 60% | pest or weed control at 250 g/ha [18]: 80% | pest or weed control at 31 g/ha ([19]; 31 g ai/ha, preemergence): 100% | pest or weed control at 62 g/ha ([19]; 62 g ai/ha, preemergence): 100% | pest or weed control at 125 g/ha ([19]; 125 g ai/ha, preemergence): 100% | pest or weed control at 250 g/ha ([19]; 250 g ai/ha, preemergence): 100% | pest or weed control at 31 g/ha ([20]; 31 g ai/ha, preemergence): 10% | pest or weed control at 62 g/ha ([20]; 62 g ai/ha, preemergence): 55% | pest or weed control at 125 g/ha ([20]; 125 g ai/ha, preemergence): 80% | pest or weed control at 250 g/ha ([20]; 250 g ai/ha, preemergence): 95%
